Data as given in patent US20170166558A1, “O-GLCNAC TRANSFERASE (OGT) INHIBITORS AND USES THEREOF” (President and Fellows of Harvard College, priority 2014, published 2017).

Test system: OGT in CHO cells
Assay: Immunoblotting of global O-GlcNAcylation (RL2) in CHO cells
Type: cell-based, Chinese hamster
Description: In vivo inhibition of glycosylation: For all immunoblotting experiments, CHO-K1 (CHO) cells were grown in F12-K media supplemented with 10% FBS and antibiotics at 37° C. in a 5% CO2 incubator. Cells were treated by adding indicated inhibitor in DMSO vehicle (0.5% final vehicle concentration) upon reaching 70% confluence. After indicated treatment length, cells were harvested by aspirating growth media and washing with ice cold 1× PBS. Cells were subsequently lysed in boiling 1% SDS/20 mM HEPES 7.9. After cooling to room temperature, 1 mM PMSF, 10 μM PUGNAC, 10 μM TMG and 1× Complete protease inhibitor cocktail were added to the solution. The mixture was sonicated and then subjected to a 5 minute incubation at 95° C. The samples were centrifuged for 15 minutes at 20,000×g and the supernatant was collected and the total protein was measured by BCA assay (BIO-RAD).
The sample was separated by SDS-PAGE (Bio-Rad 4-15%, Cat: 345-0028), transferred to a nitrocellulose membrane (iBlot, Invitrogen) and probed with the indicated antibody. Tyipcally, membranes were blocked with 4% BSA in 1× TBS+0.04% tween-20 for 1 hour before incubating with antibody (typically diluted 1:1000 in 4% BSA inlx TBS+0.04% tween-20) overnight at 4° C. Membranes were then washed three times with 1× TBS+0.04% tween-20 and incubated with secondary antibody (typically diluted 1:5000 in 4% BSA in 1× TBS+0.04% tween-20) for 1 hour at room temperature. Lastly, membranes were washed 3× with 1× TBS+0.04% tween-20 and imaged with ECL. D283-Med cells were treated as above but grown in F12-K media supplemented with 10% FBS and antibiotics. HEK, HeLa and LNCaP cells were treated as above but grown in RPMI media supplemented with 10% FBS and antibiotics.

Compound: COc1ccccc1[C@@H](NS(=O)(=O)c1ccc2[nH]c(=O)ccc2c1)C(=O)N(Cc1ccco1)Cc1cccs1 [OSMI-1, (R)—N-(furan-2-ylmethyl)-2-(2-methoxyphenyl)-2-(2-oxo-1,2-dihydroquinoline-6-sulfonamido)-N-(thiophen-2-ylmethyl)acetamide]
- Onset of reduction of global O-GlcNAcylation (50 μM, 8-hour time course): within two hours
- Concentration of maximal reduction of global O-GlcNAcylation (24 hr, 10-100 μM tested): 50 µM
